# Biological target: protein target (Homo sapiens (Human), UniProt Q06187)
# Experiment: Reversibility of binding (compound in solution before and after perturbation of target, HPLC-MS/MS)
# Conditions: target in native (folded) state, target in excess of compound
# Method: The following approach was developed to differentiate compounds that form irreversible covalent bond with their targets, such as non-cyano containing acrylamide compounds, from compound that form reversible covalent bond i.e., compounds and/or pharmaceutically acceptable salts of the present disclosure. […] The reactions were then treated with perturbations including both denaturation with 5 M guanidine hydrochloride and digestion with trypsin, disrupting proper folding of the target. […] The concentration of compound in solution was assessed both preceding and following perturbation using high performance liquid chromatography (HPLC) coupled to tandem mass spectrometry.
# protein target, sequence (Q06187 whole entry): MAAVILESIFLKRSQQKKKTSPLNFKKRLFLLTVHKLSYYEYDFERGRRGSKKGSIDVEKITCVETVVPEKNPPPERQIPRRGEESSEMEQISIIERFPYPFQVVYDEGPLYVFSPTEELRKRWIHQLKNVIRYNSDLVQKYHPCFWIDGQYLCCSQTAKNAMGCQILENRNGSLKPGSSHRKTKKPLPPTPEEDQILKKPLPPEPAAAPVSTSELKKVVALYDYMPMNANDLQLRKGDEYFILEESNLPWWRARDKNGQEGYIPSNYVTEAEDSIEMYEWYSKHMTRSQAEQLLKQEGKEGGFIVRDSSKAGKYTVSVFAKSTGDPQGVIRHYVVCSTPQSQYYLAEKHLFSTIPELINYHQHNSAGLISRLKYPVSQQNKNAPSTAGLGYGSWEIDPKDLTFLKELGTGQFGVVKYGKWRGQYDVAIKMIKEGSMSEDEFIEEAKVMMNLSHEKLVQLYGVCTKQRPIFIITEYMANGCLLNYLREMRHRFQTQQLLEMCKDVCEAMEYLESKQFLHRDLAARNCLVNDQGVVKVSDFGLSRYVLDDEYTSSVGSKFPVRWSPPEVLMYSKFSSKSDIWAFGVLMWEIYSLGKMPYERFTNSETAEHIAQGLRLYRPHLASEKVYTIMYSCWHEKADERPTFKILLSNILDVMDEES
smiles,measurement,value
"CN(C1COC1)C(C)(C)C=C(C#N)C(=O)N1CCC[C@H]1Cn1nc(-c2ccc(Oc3ccccc3)cc2F)c2c(N)ncnc21 [Example 10, 2-[(2S)-2-[[4-amino-3-(2-fluoro-4-phenoxy-phenyl)pyrazolo[3,4-d]pyrimidin-1-yl]methyl]pyrrolidine-1-carbonyl]-4-methyl-4-[methyl(oxetan-3-yl)amino]pent-2-enenitrile]",Compound in solution in the native state?,no

# Source: US11040980B2, “Substituted pyrazolo[3,4-d]pyrimidines as kinase inhibitors” (PRINCIPIA BIOPHARMA INC., priority 2012, dated 2021)
